Data from patent publication US7528149B2 (Janssen Pharmaceutica N.V., priority 1999, dated 2009).
pIC50: −log10 of the molar value. Like-named read-outs stand apart in the source and are kept apart here.

What was measured:
Format in all cases: cell-based
[1] = test system: Respiratory Syncytial Virus; experiment: In vitro screening for activity against Respiratory Syncytial Virus (tetrazolium-based colorimetric assay, protection against cytopathology in HeLa cells); settings: for SI (selectivity index, CC50 divided by IC50): CC50 (HeLa) / IC50 (RSV); for pIC50: read-out: IC50 (antiviral activity)
Text: (§1) The percent protection against cytopathology caused by viruses (antiviral activity or IC50) achieved by tested compounds and their cytotoxicity (CC50) were both calculated from dose-response curves. The selectivity of the antiviral effect is represented by the selectivity index (SI), calculated by dividing the CC50 (cytotoxic dose for 50% of the cells) by the IC50 (antiviral activity for 50% of the cells).
(§2) Automated tetrazolium-based colorimetric assays were used for determination of IC50 and CC50 of test compounds. Flat-bottom, 96-well plastic microtiter trays were filled with 180 μl of Eagle's Basal Medium, supplemented with 5% FCS (0% for FLU) and mM Hepes buffer. Subsequently, stock solutions (7.8× final test concentration) of compounds were added in 45 μl volumes to a series of triplicate wells so as to allow simultaneous evaluation of their effects on virus- and mock-infected cells. Five five-fold dilutions were made directly in the microtiter trays using a robot system. Untreated virus controls, and HeLa cell controls were included in each test. Approximately 100 TCID50 of Respiratory Syncytial Virus was added to two of the three rows in a volume of 50 μl. The same volume of medium was added to the third row to measure the cytotoxicity of the compounds at the same concentrations as those used to measure the antiviral activity. After two hours of incubation, a suspension (4×10^5 cells/ml) of HeLa cells was added to all wells in a volume of 50 μl. The cultures were incubated at 37° C. in a 5% CO2 atmosphere. Seven days after infection the cytotoxicity and the antiviral activity was examined spectrophotometrically. To each well of the microtiter tray, 25 μl of a solution of MTT (3-(4,5-dimethylthiazol-2-yl)-2,5-diphenyltetrazolium bromide) was added. The trays were further incubated at 37° C. for 2 hours, after which the medium was removed from each cup. Solubilization of the formazan crystals was achieved by adding 100 μl 2-propanol. Complete dissolution of the formazan crystals were obtained after the trays have been placed on a plate shaker for 10 min. Finally, the absorbances were read in an eight-channel computer-controlled photometer (Multiskan MCC, Flow Laboratories) at two wavelengths (540 and 690 nm). The absorbance measured at 690 nm was automatically subtracted from the absorbance at 540 nm, so as to eliminate the effects of non-specific absorption.

[2] = Cytotoxicity in mock-infected HeLa cells (tetrazolium-based colorimetric assay); settings: human
Text: as §1, §2

[3] = test system: HeLa cells; experiment: as above; settings: human, 7 days
Text: as §1, §2

[4] = CC50 (cytotoxic dose for 50% of the cells)
[5] = human respiratory syncytial virus, HeLa, 168 h
[6] = mock-infected HeLa cells, MTT, seven days, read-out: CC50 (cytotoxic dose for 50% of the cells)

SMILES	SI (selectivity index, CC50 divided by IC50) [1]	pIC50 [1, 5]	CC50 at 7 days [2, 6] [µM]	other results
CCOC(c1cccc(Br)n1)n1c(NC2CCN(CC(N)C(C)C)CC2)nc2ccccc21 (racemic) [Compound 10, (±)-N-[1-(2-amino-3-methylbutyl)-4-piperidinyl]-1-[(6-bromo-2-pyridinyl)-ethoxymethyl]-1H-benzimidazol-2-amine]	63096	–	–	pIC50 ([1]; human respiratory syncytial virus, HeLa, 168 h, RSV approx. 100 TCID50, HeLa cells, MTT read seven days after infection): 9.22; CC50 at 7 days [2, 4]: 37.9 µM
CCOC(c1nc(C)ccc1OCc1ccccc1)n1c(NC2CCN(CCN)CC2)nc2ccccc21.Cl.Cl.Cl.O.O (racemic) [Compound 11, (±)-N-[1-(2-aminoethyl)-4-piperidinyl]-1-[ethoxy[6-methyl-3-(phenylmethoxy)-2-pyridinyl]-methyl]-1H-benzimidazol-2-amine trihydrochloride dihydrate]	79	6.90	9.95	–
Cc1cccc(C(OCCO)n2c(NC3CCN(CCN)CC3)nc3ccccc32)n1 (racemic) [Compound 13, monohydrate]	>7943	7.90	> 100	–
CCOC(c1cccc(Br)n1)n1c(NC2CCN(CC(N)C(C)C)CC2)nc2c(C)cccc21 (racemic) [Compound 87, monohydrate]	31623	9.49	10.1	–
CCOC(c1cccc(C)n1)n1c(NC2CCN(CC(N)C(C)C)CC2)nc2ccccc21 (stereo not drawn) [Compound 58]	1585	–	–	pIC50 ([1]; RSV approx. 100 TCID50, HeLa cells, MTT read seven days after infection): 7.30; CC50 [3]: 79.4 µM
CCOC(c1cccc(C)n1)n1c(NC2CCN(CC(N)C(C)C)CC2)nc2ccccc21 [Compound 67, [(A)(S)]-N-[1-(2-amino-3-methylbutyl)-4-piperidinyl]-1-[ethoxy(6-methyl-2-pyridinyl)methyl]-1H-benzimidazol-2-amine monohydrate]	–	–	–	SI (selectivity index, CC50 divided by IC50) ([1]; monohydrate): 15849; pIC50 ([1]; RSV approx. 100 TCID50, HeLa cells, MTT read seven days after infection, monohydrate): 8.40; CC50 at 7 days [2, 4]: 63.4 µM
COCCOC(c1cccc(C)n1)n1c(NC2CCN(CC(N)C(C)C)CC2)nc2c(C)cc(Cl)cc21.Cl.Cl.Cl.O.O.O (stereo not drawn) [Compound 88, N-[1-(2-amino-3-methylbutyl)-4-piperidinyl]-6-chloro-1-[(2-methoxyethoxy)(6-methyl-2-pyridinyl)methyl]-4-methyl-1H-benzimidazol-2-amine trihydrochloride trihydrate]	10000	8.70	20	–
